Reference: EP0739894A1, “THIAZOLINE DERIVATIVE” (TAISHO PHARMACEUTICAL CO. LTD, priority 1994, dated 1995)
≈ marks a conversion by molar mass, not a printed value.

Experiments:
[1] = Stability test in phosphate buffer, decomposition rate constants extrapolated to 25°C; type: physicochemical; settings: phosphate buffer adjusted to pH 4.0, 20 µg/ml; estimated from rate constants of decomposition at 100°C and 65°C
Method: (§1) Solubility and stability tests were carried out according to the method of R.H. Blythe et al [J. Pharm. Sci., vol. 66, page 785 (1977)].
A phosphate buffer (pH 7) (0.1M disodium hydrogenphosphate + 0.1M sodium dihydrogenphosphate) was prepared, and adjusted to pH 4.0 with phosphoric acid. Compound 3 was added to the buffered solution at the concentration of 20 µg/ml, and which was used as a test solution. The content of Compound 3 in the test solution stored at 100°C and 65°C respectively was determined, and the rate constant of decomposition at each temperature was calculated. As a result, it was estimated that the term for remaining a 95% content of Compound 3 at 25°C was 17.6 years.

[2] = Solubility test in Britton-Robinson buffered solution, HPLC; type: physicochemical; settings: britton-robinson buffer, aqueous buffer; Britton - Robinson broad buffered solution pH 4, ionic strength 0.125, 25°C
Method: as §1
A Britton - Robinson broad buffered solution (pH 4) was prepared, and adjusted to 0.125 of the ionic strength by adding sodium chloride. An excess amount of Compound 3 was added to the resulting solution and dissolved with heating, and then after stirring at 25°C for a desired time, the solubility which became constant was measured by HPLC under the following conditions. • Column : TSK-Gel, ODS-80TM, 4φ × 150 mm • Column temperature : 50°C • Mobile phase : Water : CH3CN : SDS : phosphoric acid = 500:500:3:1 • Detection wave length : 246 nm • Flow rate : 1.0 ml/min. • Injection amount : 10 µl

blood platelet = test: Human in vitro blood platelet aggregation inhibition test (ADP-induced, PRP); type: cell-based; settings: 0.05 h
Method: Citrated blood (the volume ratio of 3.13 % sodium citrate solution and blood is 1:9) was collected from the cubital vein of a healthy human who had not received any drugs known to affect the function of blood platelet within 2 weeks prior to starting the test, and centrifuged at 120 x g at room temperature for 15 minutes. The resulting supernatant was separated to give platelet rich plasma (PRP), the remaining precipitate was further centrifuged at 1500 x g for 10 minutes, and the resulting supernatant was separated to give platelet poor plasma (PPP).
The blood platelet counts of PRP were adjusted to 50 ∼ 60 × 10^4/µl by diluting with PPP.
Blood platelet aggregation was determined according to the method of Born G.V.R., [Nature, vol. 194, page 927 (1962)] using adenosine diphosphate (produced by Sigma Co.; hereinafter referred to as "ADP") as an aggregation-inducing substance. That is, a solution of the compound of Formula (I) as a test drug in dimethyl sulfoxide was adjusted to the desired concentration with a physiological saline solution. 25 µl of the solution was added to 250 µl of PRP and incubated at 37°C for 3 minutes, and 25 µl of ADP (final concentration : 7 µM) was added thereto. […]

With Cc1c(C(=O)NCCC(=O)O)sc(=NC(=O)c2ccc(C(=N)N3CCN(c4ccccn4)CC3)cc2)n1C [Compound 3, N-(2-Carboxyethyl)-2-{4-[4-(pyridin-2-yl)piperadinylimidoyl]benzoylimino}-3,4-dimethyl-3H-thiazoline-5-carboxamide] the “term for remaining a 95% content at 25°C” value [1] was 17.6 years, the solubility [2] was 4300 µg/mL (≈ 8.03 mM) and the IC50 (blood platelet) was 21.5 nM.
